Like-named read-outs stand apart in the source and are kept apart here.
Experiments:
[1] = system: A549 (lung carcinoma) xenografts; assay: A549 xenograft study with paclitaxel triple combination (Example 2); assay type: in vivo, mice; details: for Drug deaths: Paclitaxel 5, Avastin 5, DMXAA 21 mg/kg by injection; for Regression Duration: days tumour volume less than original treatment volume; for Tumour Growth Delay: treated versus control tumours to quadruple in volume (control 25 days); for Median VQT: tumour volume quadrupling time; for Response CR (Complete Response): undetectable tumour over two weeks; for Response PD (Progressive Disease): ≧50% increase in tumour size; for Response PR (Partial Response): ≧50% reduction in tumour size sustained over two weeks
From the text: The experimental set-up of this example with respect to the xenografts, mice and cell line is as described in Example 1 above.

[2] = system: HT29 (colorectal) xenografts; details: for Regression Duration: days tumour volume less than original treatment volume; for Tumour Growth Delay: treated versus control tumours to quadruple in volume (control 17 days); for Median VQT: tumour volume quadrupling time; for Response CR (Complete Response): undetectable tumour over two weeks; for Response PR (Partial Response): ≧50% reduction in tumour size sustained over two weeks
Procedure: (§1) Xenografts for human lung and colorectal cancers are set-up in groups of nude, athymic mice. The cell lines selected are HT29 (ATCC number HTB-38), a colorectal adenocarcinoma, and A549 (ATCC number CCL-185), a lung carcinoma.
(§2) For this study, DMXAA is given twice in each of Weeks 1 and 4 of the study.
(§3) Xenografts are measured two or three times per week and their absolute volume recorded; xenograft tumour volume relative to that recorded on Day 0 (V0) is then calculated. The time taken to reach a relative tumour volume of 3× V0 is used as a surrogate marker for survival.

[3] = system: A549 (lung carcinoma) xenografts; details: for Regression Duration: Example 1, days tumour volume less than original treatment volume; for Tumour Growth Delay: Example 1, treated versus control tumours to quadruple in volume (control 25 days); for Median VQT: Example 1, tumour volume quadrupling time; for Response CR (Complete Response): Example 1, undetectable tumour over two weeks; for Response PR (Partial Response): Example 1, ≧50% reduction in tumour size sustained over two weeks
Procedure: as §1, §2, §3

human tumours = details: phase I, monotherapy, cited from earlier work
[4] = cited from earlier work
[5] = diclofenac 100 mg/kg i.p., cited from earlier work

| Compound | Response SD (Stable Disease) [1] | TTP (median time to disease progression) [1] | Drug deaths [1] | Regression Duration [1] | Tumour Growth Delay [1] | Median VQT [1] | Response CR (Complete Response) [1] | Response PD (Progressive Disease) [1] | Response PR (Partial Response) [1] | Regression Duration [2] | Tumour Growth Delay [2] | Median VQT [2] | Response CR (Complete Response) [2] | Response PR (Partial Response) [2] | TTP (median time to disease progression) ([3]; Example 1) | Regression Duration [3] | Tumour Growth Delay [3] | Median VQT [3] | Response CR (Complete Response) [3] | Response PR (Partial Response) [3] | also measured |
| --- | --- | --- | --- | --- | --- | --- | --- | --- | --- | --- | --- | --- | --- | --- | --- | --- | --- | --- | --- | --- | --- |
| Cc1ccc2c(=O)c3cccc(CC(=O)O)c3oc2c1C [DMXAA, 5,6-dimethylxanthenone-4-acetic acid] | 0 | 7 days | 4/11 | 0 days | >21 days | >46 days | 0 | 7 | 0 | 10 days | 29 days | 46 days | 0 | 1 | 14 days | 0 days | 32 days | 57 days | 0 | 0 | Response SD (Stable Disease) [2]: 0; TTP (median time to disease progression) [2]: 16 days; Response PD (Progressive Disease) ([2]; ≧50% increase in tumour size): 5; Response SD (Stable Disease) ([3]; Example 1): 0; Response PD (Progressive Disease) ([3]; Example 1, ≧50% increase in tumour size): 11; tumour blood flow (dynamic MRI) (human tumours; well-tolerated doses): significant reduction in tumour blood flow; tumour responses (human tumours): very few tumour responses |
| CC(=O)O[C@H]1C(=O)[C@@]2(C)[C@H]([C@H](OC(=O)c3ccccc3)[C@]3(O)C[C@H](OC(=O)[C@H](O)[C@@H](NC(=O)c4ccccc4)c4ccccc4)C(C)=C1C3(C)C)[C@]1(OC(C)=O)CO[C@@H]1C[C@@H]2O [Paclitaxel, paclitaxel] | 0 | 7 days | 0/11 | 0 days | 3 days | 28 days | 0 | 11 | 0 |  |  |  |  |  |  |  |  |  |  |  |  |
| O=C1CCC(N2C(=O)c3ccccc3C2=O)C(=O)N1 (centres unmarked) [Thalidomide, thalidomide] |  |  |  |  |  |  |  |  |  |  |  |  |  |  |  |  |  |  |  |  | increase of the AUC of DMXAA ([4]; in plasma, liver and spleen): 1.8 times; increase of the AUC of DMXAA ([4]; in tumour): three |
| O=C(O)Cc1ccccc1Nc1c(Cl)cccc1Cl [diclofenac] |  |  |  |  |  |  |  |  |  |  |  |  |  |  |  |  |  |  |  |  | increase in the plasma DMXAA AUC ([5]; female mice): 31%; increase in T1/2 of DMXAA ([5]; male and female mice, P<0.05): threefold; increase in the plasma DMXAA AUC ([5]; male mice): 24% |
| Avastin ™: humanised monoclonal antibody that binds to vascular endothelial growth factor (VEGF) |  | 7 days | 0/11 | 0 days | >17 days | >42 days | 0 |  | 0 | 0 days | 17 days | 34 days | 0 | 0 | 8 days | 0 days | 42 days | 67 days | 0 | 1 |  |

— patent US20100297112A1, “COMBINATIONS COMPRISING DMXAA FOR THE TREATMENT OF CANCER” (Antisoma Research Limited, priority 2005, published 2010)
